# Results taken from patent US20260335295A1, “PHARMACEUTICAL COMPOSITION COMPRISING HTRA ACTIVATOR AS ACTIVE INGREDIENT FOR PREVENTING OR TREATING DEGENERATIVE DISEASES, AND METHOD FOR SCREENING HTRA ACTIVITY MODULATOR” (THE ASAN FOUNDATION, priority 2023, published 2026).
# Experiments:
# [1] = target: T1, HTRA1 (Homo sapiens, UniProt Q92743); experiment: HTRA1 activity assay with fluorogenic substrate H2-Opt (high-throughput screening); format: biochemical
# Experimental: (§1) HTRA activity was identified through high-throughput screening using H2-Opt, a commercially available fluorogenic substrate.
# (§2) Specifically, purified recombinant HTRA1 protein (50 ng) and a compound (final concentration of 10 μM) were added to 80 μL of an assay buffer in each well of a 96-well plate and were allowed to stand at room temperature for 30 minutes. Immediately after 20 μL of an H2-OPT solution (final concentration of 6.25 μM) was added thereto and mixed, fluorescence signals generated therefrom were measured using an MS microplate reader device manufactured by Molecular Devices. Upon measurement of the fluorescence signals in kinetic mode, excitation and emission were set to 328 nm and 393 nm, respectively, and changes in the fluorescence signals were measured at 37 °C for 3 hours at intervals of 30 seconds.
# (§3) Specifically, different concentrations of E09 (0.01, 0.1, 1, 10, and 100 (M) w ere added to purified recombinant HTRA1 and HTRA2, and activities of HTRA1 and HTRA2 were measured in the same manner as the high-throughput screening of Example 1. Fluorescence signals at the end of measurement (3 hours) were measured for each concentration. Graphs obtained by measuring the fluorescence signals of HTRA1 and HTRA2 are shown in FIGS. 2 and 3.
# [2] = system: ARPE-19 retinal pigment epithelial cells; experiment: Cell death by TUNEL assay in NaIO3-induced dry macular degeneration cell model; format: cell-based; conditions: pretreated 24 hours, co-treated with NaIO3 12 hours, FIG. 7E-H
# Experimental: (§4) In order to confirm the preventive or therapeutic effect of compound E09 on age-related macular degeneration (AMD), a dry age-related macular degeneration (AMD)-like cell model induced by treatment with NaIO3 was established.
# (§5) Specifically, ARPE-19 retinal pigment epithelial cells were seeded at a density of 1.66× 10^5 cells/cm^2 and cultured for two weeks in a medium containing nicotinamide. Thereafter, the cells were re-seeded onto laminin-coated Transwell inserts.
# (§6) After culture for one month in a medium containing nicotinamide, the cells were treated with NaIO3 for 12 hours to induce cell injury (NaIO3-alone treatment group), wherein NaIO3 is commonly used for inducing dry age-related macular degeneration (AMD). Structural changes in the cells were then evaluated by analyzing clusterin and ZO-1. E09 and the HtrA1 inhibitor were dissolved in dimethyl sulfoxide (DMSO) and used for the experiments.
# (§7) In order to evaluate the effect of E09 on NaIO3-induced cell injury, E09 was pretreated 24 hours prior to NaIO3 treatment and subsequently co-treated with NaIO3 for 12 hours (E09-treated group).
# In addition, under the same conditions, NaIO3 and an HtrA1 inhibitor were administered, and a TUNEL assay was performed to evaluate cytotoxicity. […]
# [3] = system: gene sets (transcriptome); experiment: Transcriptome analysis (GSEA) in a pathological model of macular degeneration (AMD); conditions: vs control group, FIG. 12 upper left
# Experimental: The collected transcriptome data were analyzed at the gene set level using Gene Set Enrichment Analysis (GSEA).
# FIG. 12 is a graph showing the results of GSEA (Gene Set Enrichment Analysis) performed after transcriptome analysis following treatment with Compound E09 or an HTRA1 inhibitor in a pathological model of macular degeneration (AMD).
# [4] = system: ARPE-19 retinal pigment epithelial cells; experiment: Immunostaining of ApoE and Cathepsin D in three-dimensional long-term culture macular degeneration cell model; format: cell-based; conditions: ARPE-19, 4.5 months culture; vs control group; FIGS. 9A-C
# From the text: (§8) In order to verify the preventive or therapeutic effect of compound E09 on age-related macular degeneration (AMD) under conditions similar to an in vivo environment, a macular degeneration cell model using a three-dimensional (3D) long-term culture system was established.
# (§9) The model was designed to induce apical-basal polarization of ARPE-19 cells and to reproduce the structural and functional differentiation characteristics of retinal pigment epithelium (RPE), as well as pathological drusen accumulation patterns, through nicotinamide-based long-term culture.
# as §5
# (§10) Subsequently, the medium was replaced every 2-3 days with a medium containing E09 or an HtrA1 inhibitor, and the cells were differentiated for 4.5 months (untreated control group (ctrl), E09-treated group, and HtrA1 inhibitor-treated group).
# [5] = target: T1, HTRA1; experiment: HTRA1 enzyme activity on addition of casein, PDZ-opt (GQYYFV) or E09; format: biochemical; conditions: 10 μM E09 vs 2 μg β-casein or PDZ-opt; 15 minutes at room temperature, measured at 37 °C 3 hours; FIG. 5
# Experimental: HTRA activity was measured utilizing E09 and the HTRA activity-based probes synthesized by the method of Example 4.1. Changes in HTRA activity w ere measured for cases in which casein, known as a substrate of an HTRA enzyme, or PDZ-opt (GQYYFV), known as a peptide that activates an HTRA enzyme, was added and a case in which E09 was added.
# Specifically, 2 μg of β-casein or PDZ-opt (GQYYFV) or 10 μM of E09 was added to an HTRA1 enzyme by the method of Example 1, the mixture was allowed to stand at room temperature for 15 minutes, and then HTRA1 activity was measured at 37 °C for 3 hours in the same manner as in Example 1, and the results are shown in FIG. 5.
# [6] = target: T1, HTRA1; experiment: HTRA1 activation in human blood samples; conditions: no method given
# [7] = system: NaIO3-induced mouse macular degeneration model (retina); experiment: NaIO3-induced mouse macular degeneration model, H&E staining and thickness of retina; format: in vivo, C57BL/GJ mice; conditions: intravitreal injection on Day −1, NaIO3 IV day 0, eyes five days after NaIO3
# Experimental: Specifically, C57BL/GJ mice (6 weeks old) were acclimated for one week, and on experimental day 0, NaIO3 was administered via intravenous injection (IV) to induce retinal injury. To evaluate drug efficacy, E09 or an HtrA1 inhibitor was pre-administered by intravitreal injection one day prior to NaIO3 administration (Day −1).
# Five days after administration of NaIO3, the eyes were enucleated, and the tissues. were fixed and sectioned. Hematoxylin & Eosin (H&E) staining was then performed to observe morphological changes in the retina.
# In particular, the structural preservation status and thickness changes of the retinal pigment epithelium (RPE) layer, photoreceptor outer segments (POS), and the outer nuclear layer (ONL) were primarily analyzed.
# [8] = target: T1, HTRA1; experiment: HTRA1 activity in HeLa cells with HTRA1 activity-based probe DS-1-94, fluorescence microscopy; format: cell-based; conditions: E09 10 μM, DS-1-94 5 μM, 37 °C, 1 hour, FIG. 4
# Experimental: To confirm whether HTRA1 activity increases even when cells are treated with E09, HTRA1 activity according to the presence or absence of E09 was identified by treating Hela cells, which are human adenocarcinoma cells, with an HTRA1 activity-based probe (DS-1-94, final concentration of 5 μM) and E09 (HTRA activator, final concentration of 10 μM).
# Specifically, the cells treated with the HIRAI activity-based probe (DS-1-94) and E09 (HTRA activator) were maintained in a 37 °C incubator for 1 hour.
# [9] = system: ARPE-19 retinal pigment epithelial cells; experiment: Cobblestone structure by clusterin and ZO-1 staining in NaIO3-induced dry macular degeneration cell model; format: cell-based; conditions: pretreated 24 hours, co-treated with NaIO3 12 hours
# Experimental: as §4, §5, §6, §7
# In addition, under the same conditions, NaIO3 and an HtrA1 inhibitor were administered, and a TUNEL assay was performed to evaluate cytotoxicity.
# [10] = system: ARPE-19 retinal pigment epithelial cells; experiment: Microvilli formation in three-dimensional long-term culture macular degeneration cell model; format: cell-based; conditions: ARPE-19, 4.5 months culture; FIGS. 9G-I
# From the text: as §8, §9, §5, §10
# [11] = target: T2, HTRA2 (Homo sapiens, UniProt O43464); experiment: HTRA2 activity assay with fluorogenic substrate H2-Opt; format: biochemical
# T2 sequence (O43464 134-458): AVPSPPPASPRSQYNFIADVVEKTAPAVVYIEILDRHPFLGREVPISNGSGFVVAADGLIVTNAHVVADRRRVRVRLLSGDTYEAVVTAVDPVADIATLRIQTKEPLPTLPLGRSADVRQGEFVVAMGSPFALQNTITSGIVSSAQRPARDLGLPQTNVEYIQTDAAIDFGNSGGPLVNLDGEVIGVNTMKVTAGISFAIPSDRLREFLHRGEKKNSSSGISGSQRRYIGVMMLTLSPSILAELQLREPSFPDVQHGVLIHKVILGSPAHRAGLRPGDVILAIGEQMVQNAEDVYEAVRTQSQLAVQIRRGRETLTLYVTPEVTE
# Experimental: as §1, §2, §3
# [12] = system: ARPE-19 retinal pigment epithelial cells; experiment: Cell barrier structure by ZO-1 and clusterin staining in three-dimensional long-term culture macular degeneration cell model; format: cell-based; conditions: ARPE-19, 4.5 months culture; FIGS. 9D-F
# From the text: as §8, §9, §5, §10
# [13] = system: ARPE-19 retinal pigment epithelial cells; experiment: Holotomography analysis in three-dimensional long-term culture macular degeneration cell model; format: cell-based; conditions: ARPE-19, 4.5 months culture; FIGS. 9J-L
# From the text: as §8, §9, §5, §10
# T1 sequence (Q92743 23-480): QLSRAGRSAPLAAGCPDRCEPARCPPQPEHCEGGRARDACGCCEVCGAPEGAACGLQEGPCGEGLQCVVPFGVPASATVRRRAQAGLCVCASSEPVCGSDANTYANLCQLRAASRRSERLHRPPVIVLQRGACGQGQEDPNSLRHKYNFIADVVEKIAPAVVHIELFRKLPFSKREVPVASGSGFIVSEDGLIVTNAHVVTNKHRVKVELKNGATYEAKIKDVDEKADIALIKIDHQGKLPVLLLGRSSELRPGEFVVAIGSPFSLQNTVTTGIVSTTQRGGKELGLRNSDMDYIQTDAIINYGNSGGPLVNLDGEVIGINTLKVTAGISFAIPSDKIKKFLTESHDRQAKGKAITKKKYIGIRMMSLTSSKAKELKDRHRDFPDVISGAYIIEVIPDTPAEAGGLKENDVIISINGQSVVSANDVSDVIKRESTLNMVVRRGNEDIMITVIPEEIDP
smiles,measurement,setting,value
"COC(=O)C1CCC(NC(=O)c2ccc(-c3nc(C)cs3)cc2)(C(=O)OC)CC1 (centres unmarked) [Compound E09, dimethyl 1-(4-(4-methylthiazol-2-yl)benzamido)cyclohexane-1,4-dicarboxylate]",dose dependency of HTRA1 activity,"[1]; 0.01, 0.1, 1, 10, and 100 (M) as printed, signal at 3 hours, FIG. 2",activates HTRA1 and HTRA2 in a dose-dependent manner
same,activation ability in HTRA1 (both HTRA1 and HTRA2),"[1]; Example 1, in words",excellent activation ability in both HTRA1 and HTRA2
same,HTRA1 activation,"[1]; screening, final concentration of 10 μM, H2-OPT 6.25 μM, 37 °C, 3 hours, FIG. 1",significantly activate HTRA1
same,NaIO3-induced cell death (TUNEL assay),[2],NaIO3-induced cell death was significantly suppressed
same,expression of gene sets associated with retinal vascular lesions (retinal telangiectasia and vascular tortuosity),[3],overall tendency toward decreased expression
same,expression / accumulation of ApoE (drusen marker),[4],expression levels of these markers tended to decrease compared with the control group
same,expression / accumulation of cathepsin D (drusen marker),[4],expression levels of these markers tended to decrease compared with the control group
same,HTRA1 activation compared with casein or PDZ-opt (GQYYFV),[5],activates the HTRA1 enzyme at room temperature far more significantly than casein or PDZ-opt (GQYYFV)
same,HTRA1 activation in human blood samples,[6],also activates HTRA1 in human blood samples
same,tissue continuity (H&E),[7]; FIG. 11A,tissue continuity was well maintained
same,ONL thickness,[7]; FIG. 11B,significantly suppressed NaIO3-induced thinning and protected retinal structure
same,separation of the retinal (RPE-POS) layers (H&E),"[7]; vs DMSO control, FIG. 11A",separation of the retinal layers was markedly suppressed
same,fluorescence signal of HTRA1 probe (HTRA1 activity),[8],fluorescence signal markedly increased
same,structural damage induced by NaIO3 / cobblestone structure,[9]; FIG. 7A-D,structural damage induced by NaIO3 was significantly suppressed
same,monolayer structure of the cells,[9]; FIG. 7C,the monolayer structure of the cells was preserved
same,microvilli formation,[10],increased microvilli development
same,dose dependency of HTRA2 activity,"[11]; 0.01, 0.1, 1, 10, and 100 (M) as printed, signal at 3 hours, FIG. 3",activates HTRA1 and HTRA2 in a dose-dependent manner
same,activation ability in HTRA2 (both HTRA1 and HTRA2),"[11]; Example 1, in words",excellent activation ability in both HTRA1 and HTRA2
same,ZO-1 and clusterin staining pattern (epithelial barrier),[12],"maintained a continuous and regular staining pattern along the cell boundaries, indicating formation of a robust epithelial barrier structure"
same,cytoskeletal structure (holotomography),[13],a stable cytoskeletal structure was maintained
